# Results from patent publication US20220008425A1, “Pharmaceutical Composition for Treating B-Cell Lymphoma” (FUNDAN UNIVERSITY SHANGHAI CANER CENTER, priority 2018, published 2022).
# Where “and” joins values, the source holds several entries; their conditions need not be identical. Equal values may be shown once. Entries after “also recorded” stand apart in the source; their conditions may differ.
# Tests used:
# LY8-RCHO cells [1] = conditions: 48 hours; for cytotoxicity (induction of cell death), inhibitor used alone: inhibitor alone at increasing concentrations; for reversal of resistance to CHO (cytotoxicity of CHO), inhibitor co-treated with CHO: inhibitor at increasing concentrations with CHO
# Procedure: (§1) Further, we constructed LY8 and NU-DUL-1 cells resistant to chemotherapeutic drugs. Briefly, LY8-ORI and NU-DUL-1-ORI cells were treated with doxorubicin (Selleck Chemicals, Houston, Tex.) and vincristine (Selleck Chemicals, Houston, Tex.) at a clinical ratio of 50:1.4 by increasing the concentration. […] These cells were then treated with 2 μg/mL of 4-hydroperoxycyclophosphamide (4-HC) (Santa Cruz Biotechnology, Inc., Santa Cruz, Calif.) every 21 days for 3 cycles. The obtained CHO-resistant cells are referred to as LY8-CHO and NU-DUL-1-CHO, respectively. CHO-resistant cells were treated with doxorubicin, vincristine, and 4-HC every 22 days to maintain drug tolerance to CHO. […] To maintain RCHO resistance, LY8-RCHO cells and NU-DUL-1-RCHO cells were treated with 32 μg/mL of rituximab containing 20% (v/v) of NHS every 22 days, followed by treatment with doxorubicin, vincristine, and 4-HC. After 48 hours of treatment with doxorubicin, vincristine and 4-HC, drug resistance to CHO and RCHO was determined by a series of CCK-8 assays.
# (§2) Cells were seeded in a 96-well plate at a density of 1×10^4/100 μL/well. Cells were pretreated with IPI-145, abemaciclib, AZD4547, PF-573228, R788, or saracatinib at increasing concentrations with or without CHO for 48 hours prior to performing CytoTox-Glo™ cytotoxicity assay. We performed cytotoxicity assay by using a CytoTox-Glo™ cytotoxicity assay kit (Promega Inc., Madison, Wis.) according to their instructions. Briefly, 50 μL of CytoTox-Glo™ cytotoxicity assay reagent was added to all wells, mixed by orbital shaking, and then incubated for 15 minutes at room temperature. Luminescence of experimental dead cells was detected with a Synergy HT microplate reader (BioTek, Biotek Winooski, Minn.), wherein 50 μL of lysate was added to all wells, mixed and incubated for 15 minutes at room temperature prior to detection of total luminescence. Cytotoxicity was calculated according to the following formula: Cytotoxicity (%)=Experimental dead cell luminescence/Total luminescence×100%.
# NU-DUL-1-RCHO cells = conditions: 48 hours; for cytotoxicity (induction of cell death), inhibitor used alone: inhibitor alone at increasing concentrations; for reversal of resistance to CHO (cytotoxicity of CHO), inhibitor co-treated with CHO: inhibitor at increasing concentrations with CHO
# Procedure: as §1, §2
# [2] = test system: AKT phosphorylation, SOX2, CDK6 and CSC-associated molecules in LY8-RCHO cells; assay: Immunoblot analysis; format: cell-based, human
# LY8-RCHO cells [3] = assay: EdU cell proliferation assay; format: cell-based, human; conditions: 1 μM
# Procedure: RCHO-resistant DLBCL cells were pretreated with duvelisib, abemaciclib, or AZD4547 at a concentration of 1 μM for 48 or 120 hours prior to EdU assay. For 120 hours of the study, the medium was replaced with a fresh medium containing 1 μM of inhibitor at 48 hours. EdU cell proliferation assay was performed by using a cell-light EdU Apollo643 in vitro flow cytometry kit (RiboBio Inc., Guangzhou, China) according to its instructions. Next, we assayed EdU staining positive cells on a Cytomics FC500 MPL flow cytometer (Beckman Coulter, Brea, Calif.).
# LY8-RCHO cells [4] = assay: CDC assay (rituximab-mediated complement-dependent cytotoxicity); format: cell-based, human; conditions: pre-treated with inhibitor 24 hours, then rituximab and 20% NHS 2 hours
# Procedure: We constructed LY8 cells and NU-DUL-1 cells that are resistant to rituximab-mediated complement-dependent cytotoxicity (CDC). Briefly, original LY8 (LY8-ORI) cells and original NU-DUL-1 (NU-DUL-1-ORI) cells were treated with rituximab containing 20% (v/v) of NHS (Roche, Basel, Switzerland) with a concentration of gradually increasing from 4 μg/mL to 32 μg/mL to construct drug-resistant cells. […] Cytolysis induced by CDC was evaluated by detection of positive cells stained with propidium iodide (PI) through fluorescence activated cell sorting (FACS).
# LY8-RCHO cells [5] = assay: Aldefluor analysis (ALDH1+ cells); format: cell-based, human
# Procedure: ALDH1 is a selectable marker for a variety of normal and cancer stem cells, including hematopoietic stem cells. Therefore, we assessed the number of cancer stem cells in hematopoietic malignancies by detecting ALDH1 positive cells. As previously described, we used an ALDEFLUOR™ kit (StemCell Technologies, Vancouver, BC, CA) to detect populations with high ALDH1 activity. Briefly, 1×10^6 cells were suspended in 1 mL of assay buffer containing 1 μM of BAAA, a substrate of […]. Suspended cells were then equally divided into two samples, one as a negative control and the other as a test sample. To form the negative control, […] of DEAB, a specific ALDH inhibitor, was added to one equally-divided sample. Cells were then incubated at 37° C. for 30 minutes prior to flow cytometry analysis.
# LY8-RCHO-Luc cells = assay: Transplantation model, bioluminescence tumor growth and survival; format: in vivo; conditions: SCID mice bearing LY8-RCHO-Luc cells
# From the text: Construction of a transplantation model: we transduced LY8-RCHO cells and NU-DUL-1-RCHO cells with lentiviruses overexpressing the firefly luciferase gene to generate stable cells expressing firefly luciferase, referred to as LY8-RCHO-Luc cells and NU-DUL-1-RCHO-Luc cells, respectively. 8-week-old female SCID mice were purchased from SLAC (Shanghai laboratory animal center). The LY8-RCHO-Luc cells and NU-DUL-1-RCHO-Luc cells were resuspended in PBS prior to intraperitoneal injection of 1.5×10^7 cells per mouse. After intraperitoneal injection of the LY8-RCHO-Luc cells, mice were randomized into 6 groups (7 mice in every group) and given saline, R-CHOP, duvelisib, abemaciclib, R-CHOP+duvelisib, and R-CHOP+abemaciclib, respectively. Mice inoculated with the NU-DUL-1-RCHO-Luc cells were randomly divided into 6 groups (7 mice in every group), and were given saline, R-CHOP, duvelisib, AZD4547, R-CHOP+duvelisib, and R-CHOP+AZD4547, respectively. The drug dosing method based on one course of clinical use is shown in Table 1; the R-CHOP regimen was clinically used to treat DLBCL, while duvelisib, abemaciclib, and AZD4547 were tested in clinical trials (associated NCT numbers are NCT02576275, NCT01739309, and […], respectively). Tumor growth was monitored by bioluminescence at day 50 and day 90 after inoculation. For in vivo luminescence imaging, D-luciferin (Promega, Madison, Wis.) was intraperitoneally injected into mice (150 mg/kg). After 10 minutes, the mice were anesthetized by intraperitoneal injection of pentobarbital (50 mg/kg) and then their bioluminescence intensity was examined by using an In Vivo MS FX PRO system (Bruker Corporation, Billerica, Mass.). Luminescence images were captured with an exposure time of 30 seconds and the signal intensity of the tumor was measured by using Bruker MI software. The survival time of each mouse was recorded. Surviving mice were euthanized and dissected 120 days after inoculation and no intraperitoneal tumors were found. Tumor tissue was collected from moribund mice and fixed with 4% formalin. All animal experiments were performed in strict accordance with the experiment protocol approved by the animal ethics committee of Shanghai school of medicine of Fudan university.
# [6] = test system: CD20 and mCRPs (CD46, CD55, CD59) in RCHO-resistant LY8 cells; assay: FACS analysis of membrane expression of CD46, CD55, CD59 and CD20; format: cell-based, human
# Procedure: (§3) After being washed with PBS, cells were incubated with fluorescein-conjugated antibody for 30 minutes, followed by washing and resuspension of cells in PBS. Flow cytometry analysis was performed on a cytomics FC500 MPL instrument (Beckman Coulter, Inc., Brea, Calif.) and FlowJo software (Ashland, Inc., OR) was used for analysis. Cells were then sorted according to their relative fluorescence intensity by using a MoFlo XDP sorter (Beckman Coulter Inc., Brea, Calif.).
# [7] = test system: CD20 and mCRPs (CD46, CD55, CD59) in RCHO-resistant NU-DUL-1 cells; assay: as above; format: cell-based, human
# Procedure: as §3
structure (smiles),measurement,setting,value
CN1CCN(CCOc2cc(OC3CCOCC3)c3c(Nc4c(Cl)ccc5c4OCO5)ncnc3c2)CC1 [saracatinib],"cytotoxicity (induction of cell death), inhibitor used alone",LY8-RCHO cells [1],negligible effect on direct induction of cell death
same,"reversal of resistance to CHO (cytotoxicity of CHO), inhibitor co-treated with CHO",LY8-RCHO cells [1],significantly reversed resistance of RCHO-resistant cells to CHO
same,"cytotoxicity (induction of cell death), inhibitor used alone",NU-DUL-1-RCHO cells,negligible effect on direct induction of cell death
same,"reversal of resistance to CHO (cytotoxicity of CHO), inhibitor co-treated with CHO",NU-DUL-1-RCHO cells,significantly reversed resistance of RCHO-resistant cells to CHO
CCN1CCN(Cc2ccc(Nc3ncc(F)c(-c4cc(F)c5nc(C)n(C(C)C)c5c4)n3)nc2)CC1 [abemaciclib],"levels of CSC-associated molecules (OCT4, NANOG, KLF4, c-MYC, CD34, CD133)",[2],had no effect on its levels but resulted in a reduction in C-MYC
same,cell proliferation (EdU incorporation),LY8-RCHO cells [3]; 48 hours,prevented growth of LY8-RCHO cells at both 48 hours and 120 hours
same,cell proliferation (EdU incorporation),LY8-RCHO cells [3]; 120 hours,prevented growth of LY8-RCHO cells at both 48 hours and 120 hours
same,"cytotoxicity (induction of cell death), inhibitor used alone",LY8-RCHO cells [1],negligible effect on induction of cell death; also recorded: only negligible cytotoxicity on drug-resistant cells
same,"reversal of resistance to CHO (cytotoxicity of CHO), inhibitor co-treated with CHO",LY8-RCHO cells [1],restored sensitivity of RCHO-resistant cells to CHO; also recorded: significantly enhanced cytotoxicity of CHO
same,effect on resistance to R-mediated CDC,LY8-RCHO cells [4],failed to reverse resistance to R-mediated CDC
same,proportion of ALDH1+ cells (CSCs),LY8-RCHO cells [5],had no effect on ALDH1+ subpopulations in LY8-RCHO cells
same,day of death of the two mice that died,"LY8-RCHO-Luc cells; inhibitor combined with R-CHOP, 7 mice per group",62 days and 78 days
same,tumor growth (total photon flux),"LY8-RCHO-Luc cells; inhibitor combined with R-CHOP, dosing per Table 1",significantly inhibited tumor growth
same,survival,"LY8-RCHO-Luc cells; inhibitor combined with R-CHOP, experiment ended at day 120",prolonged the survival rate compared with R-CHOP or an inhibitor alone
same,survival,"LY8-RCHO-Luc cells; regimen or inhibitor used alone, vs saline, dosing per Table 1",neither duvelisib nor abemaciclib alone inhibited tumor growth or prolonged the survival rate
same,tumor growth (total photon flux),"LY8-RCHO-Luc cells; regimen or inhibitor used alone, vs saline, dosing per Table 1, day 50 and 90",neither duvelisib nor abemaciclib alone inhibited tumor growth or prolonged the survival rate
CS(=O)(=O)c1cccc(CNc2nc(Nc3ccc4c(c3)CCC(=O)N4)ncc2C(F)(F)F)c1 [PF-573228],"cytotoxicity (induction of cell death), inhibitor used alone",LY8-RCHO cells [1],negligible effect on direct induction of cell death
same,"reversal of resistance to CHO (cytotoxicity of CHO), inhibitor co-treated with CHO",LY8-RCHO cells [1],significantly reversed resistance of RCHO-resistant cells to CHO
NC1(c2ccc(-c3nc4ccn5c(=O)[nH]nc5c4cc3-c3ccccc3)cc2)CCC1 [MK-2206],membrane expression of CD20,[6],significantly reduced
same,"membrane expression of the other three mCRPs (CD46, CD55, CD59)",[6],the other three mCRPs did not
same,membrane expression of CD20,[7],significantly reduced
same,"membrane expression of the other three mCRPs (CD46, CD55, CD59)",[7],the other three mCRPs did not
COc1cc(Nc2ncc(F)c(Nc3ccc4c(c3)N(COP(=O)(O)O)C(=O)C(C)(C)O4)n2)cc(OC)c1OC [R788],"cytotoxicity (induction of cell death), inhibitor used alone",LY8-RCHO cells [1],negligible effect on direct induction of cell death
same,"reversal of resistance to CHO (cytotoxicity of CHO), inhibitor co-treated with CHO",LY8-RCHO cells [1],significantly reversed the resistance of RCHO-resistant cells to CHO
same,"cytotoxicity (induction of cell death), inhibitor used alone",NU-DUL-1-RCHO cells,negligible effect on direct induction of cell death
same,"reversal of resistance to CHO (cytotoxicity of CHO), inhibitor co-treated with CHO",NU-DUL-1-RCHO cells,significantly reversed the resistance of RCHO-resistant cells to CHO
